Laboratory results: patent US12466829B2, “Spirocyclic piperidine melanocortin subtype-2 receptor (MC2R) antagonists and uses thereof” (Crinetics Pharmaceuticals, Inc., priority 2019, dated 2025)

Molecular target: T1, hMC2 receptor (Homo sapiens, UniProt Q01718)
T1 construct: host or cells: CRE-bla-CHO-K1 cells
Assay: hMC2 membrane binding assay ([125I]ACTH (1-39) Tyr23, SPA)
Settings: crude membranes of CRE-bla-CHO-K1 cells expressing hMC2 receptor and hMRAP; 0.2 nM [125I]ACTH (1-39) Tyr23; 1.5 hours at room temperature; read-out: MC2R binding potency
Experimental: Crude membrane fractions are prepared from CRE-bla-CHO-K1 cells stably expressing hMC2 receptor and hMRAP accessory protein (Thermo Fisher). The cells are grown to 85-100% confluence on standard tissue culture dishes in GlutaMax DMEM growth media (Gibco) with following additives: 10% dialyzed FBS (Gemini), 0.1 mM NEAA (Gibco), 25 mM HEPES (Gibco), 5 μg/mL blasticidin (Goldbio), 100 μg/mL zeocin (Invitrogen), 600 μg/mL hygromycin (Goldbio). To prepare membranes, cells are scraped and collected in 1× Dulbecco's phosphate buffered saline (Corning) and then pelleted at 1000 RPM's. The cell pellet is reconstituted in membrane preparation buffer (20 mM HEPES, 6 mM MgCl2 and 1 mM EGTA, protease inhibitor tablets (Pierce) adjusted to pH 7.4), homogenized using a dounce homogenizer, and the resulting membrane fraction is pelleted by centrifugation at 12,000 RPM's. The membrane pellet is resuspended in membrane preparation buffer, snap freezed and stored at −80° C. for later use.
The hMC2 membrane binding assay utilizes the following components: radiolabel [^125I]ACTH (1-39) Tyr23 (PerkinElmer), wheatgerm agglutinin coated PVT SPA beads (PerkinElmer), crude hMC2R membranes, and compounds. Briefly hMC2R membranes are incubated with SPA beads in binding assay buffer (50 mM HEPES, 5 mM MgCl2, 1 mM CaCl2), 0.2% BSA, protease inhibitor tablets (Pierce) adjusted to pH7.4) prior to assay initiation. […] Assay plates are read using a Top Count NXT and Ki values for compounds are determined using a GraphPad Prism 6 non-linear regression analysis.

T1 sequence (Q01718 whole entry): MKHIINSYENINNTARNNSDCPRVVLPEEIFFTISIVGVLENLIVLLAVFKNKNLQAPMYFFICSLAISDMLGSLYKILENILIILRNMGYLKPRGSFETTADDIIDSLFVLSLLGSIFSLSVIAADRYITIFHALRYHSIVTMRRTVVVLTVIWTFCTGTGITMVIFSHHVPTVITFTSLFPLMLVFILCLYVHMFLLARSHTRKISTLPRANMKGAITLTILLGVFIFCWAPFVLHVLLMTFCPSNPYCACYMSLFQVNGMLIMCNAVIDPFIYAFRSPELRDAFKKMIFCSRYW
T1 sequence (Q8TCY5 whole entry partner): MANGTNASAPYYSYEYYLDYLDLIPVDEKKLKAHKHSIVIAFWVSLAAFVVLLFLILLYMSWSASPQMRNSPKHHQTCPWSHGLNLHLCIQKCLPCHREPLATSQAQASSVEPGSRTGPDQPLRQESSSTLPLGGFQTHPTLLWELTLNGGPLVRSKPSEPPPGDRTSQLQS

| SMILES | Ki [nM] |
| --- | --- |
| CCOc1ncccc1-c1ccc2c(c1)N(C(=O)CCN)CC21CCN(c2cc(OC)cc(C(F)(F)F)n2)CC1 [1-36, 3-amino-1-[6-(2-ethoxypyridin-3-yl)-1′-[4-methoxy-6-(trifluoromethyl)pyridin-2-yl]-1,2-dihydrospiro[indole-3,4′-piperidin]-1-yl]propan-1-one] | 1000 to 10000 |
| CCOc1ncccc1-c1ccc2c(c1)N(C[C@H]1CCN1)CC21CCN(c2ccc(C(F)(F)F)cc2C#N)CC1 [1-38, 2-(1-{[(2R)-azetidin-2-yl]methyl}-6-(2-ethoxypyridin-3-yl)-1,2-dihydrospiro[indole-3,4′-piperidin]-1′-yl)-5-(trifluoromethyl)benzonitrile] | 10 to 100 |
| CCOc1ncccc1-c1ccc2c(c1)N(C[C@@H]1CCN1)CC21CCN(c2ccc(C(F)(F)F)cc2C#N)CC1 [1-39, 2-(1-{[(2S)-azetidin-2-yl]methyl}-6-(2-ethoxypyridin-3-yl)-1,2-dihydrospiro[indole-3,4′-piperidin]-1′-yl)-5-(trifluoromethyl)benzonitrile] | 10 to 100 |
| CCOc1ncccc1-c1ccc2c(c1)N([C@@H](C)CN)CC21CCN(c2ccc(C(F)(F)F)cc2C#N)CC1 [1-41, 2-{1-[(2S)-1-aminopropan-2-yl]-6-(2-ethoxypyridin-3-yl)-1,2-dihydrospiro[indole-3,4′-piperidin]-1′-yl}-5-(trifluoromethyl)benzonitrile] | 10 to 100 |
| C[C@@H](N)CN1CC2(CCN(c3ccc(C(F)(F)F)cc3C#N)CC2)c2ccc(-c3ccccc3CO)cc21 [1-42, 2-{1-[(2R)-2-aminopropyl]-6-[2-(hydroxymethyl)phenyl]-1,2-dihydrospiro[indole-3,4′-piperidin]-1′-yl}-5-(trifluoromethyl)benzonitrile] | 10 to 100 |
| CCOc1ncccc1-c1ccc2c(c1)N(C(=O)CCN)CC21CCN(c2ccc(OC)nc2C#N)CC1 [1-43, 3-[1-(3-aminopropanoyl)-6-(2-ethoxypyridin-3-yl)-1,2-dihydrospiro[indole-3,4′-piperidin]-1′-yl]-6-methoxypyridine-2-carbonitrile] | 10 to 100 |
| CCOc1ccc(N2CCC3(CC2)CN(C(=O)CCN)c2cc(-c4cccnc4OCC)ccc23)c(C#N)n1 [1-44, 3-[1-(3-aminopropanoyl)-6-(2-ethoxypyridin-3-yl)-1,2-dihydrospiro[indole-3,4′-piperidin]-1′-yl]-6-ethoxypyridine-2-carbonitrile] | 10 to 100 |
| CCOc1ncccc1-c1ccc2c(c1)N(C[C@@H](C)N)CC21CCN(c2ccc(Cl)cc2C(F)F)CC1 [1-45, (2R)-1-{1′-[4-chloro-2-(difluoromethyl)phenyl]-6-(2-ethoxypyridin-3-yl)-1,2-dihydrospiro[indole-3,4′-piperidin]-1-yl}propan-2-amine] | 10 to 100 |
| CCOc1ncccc1-c1ccc2c(n1)N(C(=O)[C@@H](C)N)CC21CCN(c2ccc(C(F)(F)F)cc2C#N)CC1 [1-47, 2-{1′-[(2R)-2-aminopropanoyl]-6′-(2-ethoxypyridin-3-yl)-1′,2′-dihydrospiro[piperidine-4,3′-pyrrolo[2,3-b]pyridin]-1-yl}-5-(trifluoromethyl)benzonitrile] | 10 to 100 |

Next, values leading:

| Ki [nM] | SMILES |
| --- | --- |
| < 10 | CCOc1ncccc1-c1ccc2c(n1)N(C(=O)CCN)CC21CCN(c2ccc(C(F)(F)F)cc2C#N)CC1 [1-28, 2-[1′-(3-aminopropanoyl)-6′-(2-ethoxypyridin-3-yl)-1′,2′-dihydrospiro[piperidine-4,3′-pyrrolo[2,3-b]pyridin]-1-yl]-5-(trifluoromethyl)benzonitrile] |
| < 10 | CCOc1ncccc1-c1ccc2c(n1)N(CCN)CC21CCN(c2ccc(C(F)(F)F)cc2C#N)CC1 [1-29, 2-[1′-(2-aminoethyl)-6′-(2-ethoxypyridin-3-yl)-1′,2′-dihydrospiro[piperidine-4,3′-pyrrolo[2,3-b]pyridin]-1-yl]-5-(trifluoromethyl)benzonitrile] |
| 10 to 100 | CCOc1ncccc1-c1ccc2c(c1)N(C(=O)NC[C@@H](C)N)CC21CCN(c2ccc(C(F)(F)F)cc2C#N)CC1 [1-30, N-[(2R)-2-aminopropyl]-1′-[2-cyano-4-(trifluoromethyl)phenyl]-6-(2-ethoxypyridin-3-yl)-1,2-dihydrospiro[indole-3,4′-piperidine]-1-carboxamide] |
| 10 to 100 | CCOc1ncccc1-c1ccc2c(c1)N(C(=O)NC[C@H](C)N)CC21CCN(c2ccc(C(F)(F)F)cc2C#N)CC1 [1-31, N-[(2S)-2-aminopropyl]-1′-[2-cyano-4-(trifluoromethyl)phenyl]-6-(2-ethoxypyridin-3-yl)-1,2-dihydrospiro[indole-3,4′-piperidine]-1-carboxamide] |
| 10 to 100 | CCOc1ncccc1-c1ccc2c(c1)N(C(=O)N[C@@H]1CCNC1)CC21CCN(c2ccc(C(F)(F)F)cc2C#N)CC1 [1-32, 1′-[2-cyano-4-(trifluoromethyl)phenyl]-6-(2-ethoxypyridin-3-yl)-N-[(3R)-pyrrolidin-3-yl]-1,2-dihydrospiro[indole-3,4′-piperidine]-1-carboxamide] |
| 10 to 100 | CCOc1ncccc1-c1ccc2c(c1)N(C(=O)N[C@H]1CCNC1)CC21CCN(c2ccc(C(F)(F)F)cc2C#N)CC1 [1-33, 1′-[2-cyano-4-(trifluoromethyl)phenyl]-6-(2-ethoxypyridin-3-yl)-N-[(3S)-pyrrolidin-3-yl]-1,2-dihydrospiro[indole-3,4′-piperidine]-1-carboxamide] |
| 10 to 100 | CCOc1ncccc1-c1ccc2c(c1)N(C(=O)CCN)CC21CCN(c2ccc(Cl)cc2C#N)CC1 [1-34, 2-[1-(3-aminopropanoyl)-6-(2-ethoxypyridin-3-yl)-1,2-dihydrospiro[indole-3,4′-piperidin]-1′-yl]-5-chlorobenzonitrile] |
| 10 to 100 | N#Cc1cc(C(F)(F)F)ccc1N1CCC2(CC1)CN(C(=O)CCN)c1cc(-c3ccccc3CO)ccc12 [1-35, 2-[1-(3-aminopropanoyl)-6-[2-(hydroxymethyl)phenyl]-1,2-dihydrospiro[indole-3,4′-piperidin]-1′-yl]-5-(trifluoromethyl)benzonitrile] |
| 10 to 100 | CCOc1ncccc1-c1ccc2c(c1)N(S(=O)(=O)CCN)CC21CCN(c2ccc(C(F)(F)F)cc2C#N)CC1 [1-37, 2-[1-(2-aminoethanesulfonyl)-6-(2-ethoxypyridin-3-yl)-1,2-dihydrospiro[indole-3,4′-piperidin]-1′-yl]-5-(trifluoromethyl)benzonitrile] |
| < 10 | CCOc1ncccc1-c1ccc2c(c1)N([C@H](C)CN)CC21CCN(c2ccc(C(F)(F)F)cc2C#N)CC1 [1-40, 2-{1-[(2R)-1-aminopropan-2-yl]-6-(2-ethoxypyridin-3-yl)-1,2-dihydrospiro[indole-3,4′-piperidin]-1′-yl}-5-(trifluoromethyl)benzonitrile] |
| < 10 | CCOc1ncccc1-c1ccc2c(n1)N(C[C@@H](C)N)CC21CCN(c2ccc(C(F)(F)F)cc2C#N)CC1 [1-46, 2-{1′-[(2R)-2-aminopropyl]-6′-(2-ethoxypyridin-3-yl)-1′,2′-dihydrospiro[piperidine-4,3′-pyrrolo[2,3-b]pyridin]-1-yl}-5-(trifluoromethyl)benzonitrile] |
| < 10 | CCOc1ncccc1-c1ccc2c(n1)N(C(=O)[C@H](C)N)CC21CCN(c2ccc(C(F)(F)F)cc2C#N)CC1 [1-48, 2-{1′-[(2S)-2-aminopropanoyl]-6′-(2-ethoxypyridin-3-yl)-1′,2′-dihydrospiro[piperidine-4,3′-pyrrolo[2,3-b]pyridin]-1-yl}-5-(trifluoromethyl)benzonitrile] |
